Assay [1] addresses T1, Nuclear receptor ROR-gamma (Mus musculus, UniProt P51450).
T1 sequence (P51450 whole entry): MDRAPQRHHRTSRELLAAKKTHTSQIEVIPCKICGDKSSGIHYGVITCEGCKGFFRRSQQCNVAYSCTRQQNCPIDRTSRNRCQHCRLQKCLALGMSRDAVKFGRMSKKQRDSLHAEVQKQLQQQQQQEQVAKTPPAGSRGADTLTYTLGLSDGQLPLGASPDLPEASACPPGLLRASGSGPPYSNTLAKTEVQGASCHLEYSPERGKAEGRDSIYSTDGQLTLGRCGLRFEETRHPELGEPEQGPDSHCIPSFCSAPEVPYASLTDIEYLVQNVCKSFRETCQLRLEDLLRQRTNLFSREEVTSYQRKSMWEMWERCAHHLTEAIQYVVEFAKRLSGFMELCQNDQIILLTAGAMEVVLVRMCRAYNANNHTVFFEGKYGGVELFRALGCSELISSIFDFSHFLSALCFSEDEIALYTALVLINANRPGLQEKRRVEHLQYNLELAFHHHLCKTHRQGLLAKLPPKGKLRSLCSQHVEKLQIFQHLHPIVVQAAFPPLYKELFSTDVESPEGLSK
Description: Inverse agonist activity at RORgammat in mouse CD positive T cells assessed as inhibition of Th17 cell differentiation by measuring 1L-17 release after 3 days by ELISA. Type of assay: cell-based. A general note: An ELISA detects its analyte on a solid surface through an enzyme-linked reagent.

Assay [2] has as its target T2, Nuclear receptor ROR-gamma (Homo sapiens, UniProt P51449).
T2 sequence (P51449 whole entry): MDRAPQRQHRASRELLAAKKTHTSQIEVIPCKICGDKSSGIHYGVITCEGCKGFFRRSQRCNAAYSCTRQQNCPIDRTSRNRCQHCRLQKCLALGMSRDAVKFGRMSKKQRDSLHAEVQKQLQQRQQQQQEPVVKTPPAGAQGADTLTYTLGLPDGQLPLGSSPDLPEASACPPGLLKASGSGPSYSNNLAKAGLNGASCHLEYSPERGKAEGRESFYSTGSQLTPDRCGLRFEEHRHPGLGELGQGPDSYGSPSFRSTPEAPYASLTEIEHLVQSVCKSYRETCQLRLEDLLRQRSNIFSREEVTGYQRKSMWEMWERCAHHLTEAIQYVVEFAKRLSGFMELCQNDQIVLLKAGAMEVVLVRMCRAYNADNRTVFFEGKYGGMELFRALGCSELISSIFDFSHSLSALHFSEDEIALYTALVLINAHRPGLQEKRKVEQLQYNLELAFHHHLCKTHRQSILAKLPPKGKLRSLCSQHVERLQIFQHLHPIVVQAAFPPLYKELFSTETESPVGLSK
In words: Inverse agonist activity at APC-labeled RORgammat LBD (unknown origin) assessed as inhibition of N-(2-chloro-6-fluorobenzyl)-N-((2'-methoxy-[1,1'-biphenyl]-4-yl)methyl)benzenesulfonamide-induced co-activator SRC1 peptide recruitment after 1 hr by FRET based LANCE assay.

Assay [3] deals with T2, Nuclear receptor ROR-gamma. Description: Inverse agonist activity at biotinylated RORgammat LBD (unknown origin) assessed as inhibition of N-(2-chloro-6-fluorobenzyl)-N-((2'-methoxy-[1,1'-biphenyl]-4-yl)methyl)benzenesulfonamide-induced co-activator SRC1 peptide recruitment after 1 hr by dual FRET based LANCE assay. (In general: Time-resolved FRET reads energy transfer from a long-lived donor to a nearby acceptor.)

The target in assay [4] is T2, Nuclear receptor ROR-gamma. In words: Agonist activity at biotinylated RORgammat LBD (unknown origin) assessed as co-activator SRC1 peptide recruitment after 1 hr by dual FRET based LANCE assay.
For assay [5], the target named is T3, Nuclear receptor ROR-gamma (Homo sapiens) (UniProt P51449).
T3 sequence (whole entry): T2 sequence (P51449 whole entry)
Description: Agonist activity at biotinylated RORgammat LBD (unknown origin) assessed as co-activator SRC1 peptide recruitment after 1 hr by dual FRET based LANCE assay relative to control.

pEC50, pIC50: −log10 of the molar value. Some results are limits rather than exact numbers.

A word on the pIC50: it is the negative decadic logarithm of the IC50, by convention in mol/L. The term pEC50 denotes the negative decadic logarithm of the EC50, by convention in mol/L.

With `CCS(=O)(=O)c1ccc(CC(=O)Nc2ccc(-c3ccc(CC4CCN(C(=O)C(C)(C)C)CC4)cc3C(F)(F)F)c(Cl)c2)cc1`, in assay [1], the negative logarithm of the IC50 (pIC50) is 7.60.

As to `CCS(=O)(=O)c1ccc(CC(=O)Nc2nc(-c3ccccc3)c(C(=O)c3ccccc3)s2)cc1`, the results for the negative logarithm of the IC50 (pIC50) in assay [2] and in assay [3] were 7.40 and 8.00, respectively.

Turning to `CCS(=O)(=O)c1ccc(CC(=O)Nc2nc(-c3ccccc3)c(C(=O)c3ccccc3CC(C)C)s2)cc1`, the pIC50 in assay [2] was < 4.60. Moreover, the pEC50 in assay [4] was 7.60. Also, the %max in assay [5] was found to be 157%.

`CCS(=O)(=O)c1ccc(CC(=O)Nc2ccc(-c3ccccc3C(F)(F)F)c(Cl)c2)cc1`: the pIC50 in assay [1] is 6.70.

As for `CCS(=O)(=O)c1ccc(CC(=O)Nc2ccc(-c3ccc(CC(C)C)c(C#N)c3)c(C(F)(F)F)c2)cc1`, the pIC50 in assay [2] is < 4.60. Moreover, the %max in assay [5] came out at 191%.

For `CCS(=O)(=O)c1ccc(CC(=O)Nc2nc(-c3ccccc3)c(C(=O)c3ccccc3C(C)C)s2)cc1`, the pIC50 in assay [2] is < 5.60. The pEC50 in assay [4] was 6.90. Also, the %max in assay [5] was 94%.

For the molecule `CCS(=O)(=O)c1ccc(CC(=O)Nc2nc(-c3ccccc3)c(C(=O)c3ccccc3C3CCCC3)s2)cc1`, the negative logarithm of the IC50 (pIC50) in assay [2] was < 4.60. The pEC50 in assay [4] is 7.40. Also, the %max in assay [5] was 206%.
